The results in this text go back to US11466020B2, “Compounds and compositions for inhibition and elimination of Zika infection and uses for same” (Cornell University, priority 2017, dated 2022).

The subject of the assay is ZIKV MR766. Description: Inhibition of ZIKV infection of hNPCs (high content screen / inhibitory curve, ZIKV E staining). As to conditions: for ZIKV infection of hNPCs compared to DMSO controls: 72 h after ZIKV (MR766) infection; for IC50: Zika virus, hNPCs, ZIKV MR766 MOI=0.125, compound added before infection, infection rate (ZIKV E+ cells), read-out: IC50 values of anti-ZIKV activity. The class given is cell-based, Zika virus. The procedure: A high content chemical screen identifies compounds that inhibit ZIKV infection of hNPCs. To identify drugs that inhibit ZIKV infection, we screened the Prestwick library that includes 1120 FDA-approved drug and drug candidates, selected for known bioavailability and safety in humans. To perform the screen, hNPCs seeded in 384-well plates were treated with each compound from the library or vehicle control (DMSO) for 1 hour, followed by addition of ZIKV MR766 at a MOI=0.125. After two hour of inoculation with ZIKV, the virus-containing medium was replaced by fresh virus-free medium and compounds were replenished for each well (See Methods). After an additional three days of culture, cells were fixed and stained with antibodies against the ZIKV envelop protein (ZIKV E) and a cell proliferation marker Ki67 (FIG. 1A). The percentages of ZIKV E^+ cells, Ki67^+ cells and total cell number were quantified by an automated imaging and analysis system. A two dimensional analysis was performed to choose the primary hit compounds (FIG. 5A). The X-axis represents the fold change of total cell number, which was calculated by dividing the total cell number of the chemical-treated well by the average total cell number of DMSO-treated wells. The Y-axis represents the fold change of the percentage of ZIKV infected cells, which was calculated by dividing the percentage of cells expressing ZIKV E in each chemical-treated well by the average of the percentage of cells expressing ZIKV E from DMSO-treated wells. […] Based on the fold change of the percentage of ZIKV infection, the signal-to-basal (S/B) ratio is 4.2 and the coefficient of variation (CV) is 6.9%. The Z factor is 0.59 indicating a robust screening system.
hNPCs were plated on 96-well plates at 8.5×10^4/cm^2. After overnight incubation, hNPCs were infected with ZIKV (MR766 strain, MOI=0.125) for 2 h, and changed to virus-free medium. The cells were maintained in NPC medium with daily medium change. Three days later, the supernatant and cells were collected and used for assays. hESC-derived forebrain organoids were infected with ZIKV MR766 (5×10^5 PFU/ml) for 24 h. After removal of virus containing medium, forebrain organoids were maintained in forebrain organoid medium for an additional 3 or 17 days and then used for assays.
High-content Screen. hNPCs were dissociated and plated on Matrigel-coated 384-well plates for the chemical screen. […] DMSO was used as a negative control. ZIKV MR766 was added at MOI=0.125. After 2 hour infection, the supernatant was replaced with fresh medium and compounds from the same chemical library were added to the same wells. After an additional 3 days incubation, cells were fixed, stained with antibodies against ZIKV envelop protein (ZIKV E) and proliferation marker Ki67, and analyzed with the ImageXpress^MICRO Automated High-Content Analysis System. […] X-axis represents the fold change of total cell number, which was calculated by dividing the total cell number of the chemical treated well by the average of total cell number of DMSO treated wells. Y-axis represents the fold change of the percentage of ZIKV infection, which was calculated by dividing the percentage of ZIKV infection of the chemical treated well by the average of the percentage of ZIKV infection of DMSO treated wells. The compounds in which the fold change of total cell number >1 and the fold change of the percentage of ZIKV infection <20% were further evaluated. […]

Where a name gives a salt, the structure may show the parent alone.

With `CN1CCC2=C[C@H](O)[C@H]3OC(=O)c4cc5c(cc4[C@H]3[C@@H]21)OCO5` [HH, hippeastrine hydrobromide], the “ZIKV infection of hNPCs compared to DMSO controls” value is on record as “effectively inhibited ZIKV infection” and the IC50 came out at 5.5 µM.
With `CCN(CC)Cc1cc(Nc2ccnc3cc(Cl)ccc23)ccc1O` [AQ, amodiaquine dihydrochloride dihydrate], the “ZIKV infection of hNPCs compared to DMSO controls” value is on record as “effectively inhibited ZIKV infection” and the IC50 was 6 µM.
